The text below walks through data of publication PMC4374917, “Identification of Small Molecules that Disrupt Signaling between ABL and Its Positive Regulator RIN1” (PLoS ONE, 2015).

Assay [1] concerns the target T1, ABL1-eGFP (CRK substrate) (Homo sapiens, UniProt P00519).
T1 construct: The ABL1 amino terminus was amplified from AblWT1-531 (gift of Dr. John Kuriyan); made in house; host or cells: Sf9 insect cells (baculovirus, pFastBac1)
Kind of assay: In vitro kinase assay for direct ABL inhibitors. Format: biochemical. The note with it: 10 μM test compound, 0.5 nM ABL-eGFP, 2 μM CRK, 30 minutes at 30°C, anti-phosphotyrosine immunoblot. The method, then:
To identify these direct ABL kinase inhibitors, we screened the compounds using an in vitro kinase assay. Purified ABL1-eGFP was incubated with CRK, a well-characterized substrate, in kinase buffer containing ATP.
0.5 nM purified ABL-eGFP was mixed with 2 μM CRK and 10 μM test compound and incubated in kinase buffer for 30 minutes at 30°C. Samples were analyzed by immunoblot using anti-phosphotyrosine. All the hits were screened, and a representative immunoblot is shown here.
The kinase assay to identify direct ABL kinase inhibitors from UCLA MSSR and TSRI hits was performed as described in PubChem BioAssay AID 624303 (https://pubchem.ncbi.nlm.nih.gov/assay/assay.cgi?aid=624303). Purified His6-CrkII was expressed and purified as previously described.
Background: A western blot detects proteins with antibodies after separation by electrophoresis.

Assay [2] deals with native ABL1. More on the design: method as in PMID 16415863, PMID 20072125. The note with it: cited from earlier work.
The subject of assay [3] is MAPK1/3 phosphorylation in K562 cells. Kind of assay: pMAPK in K562 (immunoblot pMAPK1/3 / MAPK1/3). Format: cell-based, human. The settings on record: for %inhibition of MAPK1/3 phosphorylation (pMAPK/MAPK ratio): 10 μM, 4 hours at 37°C, vs DMSO control, six biological replicates. The protocol: […] Each compound was tested with six biological replicates. Band intensity was quantified using LI-COR Odyssey, and the ratio of pMAPK/MAPK signal intensity is graphed for each compound and its DMSO control. Compounds are identified by their PubChem CID number.
Membranes were scanned and signal intensity quantified using a Li-Cor Odyssey scanner. To quantify RIN1 expression, signal intensities were first normalized to the housekeeping gene, tubulin. Phospho-MAPK1/3 signal intensities were normalized to total MAPK1/3. Changes in protein expression or phosphorylation were calculated as fold-change compared to control vector.
K562 with vector or RIN1 overexpression lentivirus were previously described. To analyze MAPK1 phosphorylation, confluent K562 cells were lysed in NP-40 buffer and immunoblotted. […] Cells from each well were harvested, lysed in 400 µL NP-40 and immunoblotted.
To test each compound, 5x10^5 K562 cells were plated on a 10 cm tissue culture plate and incubated for 3 days. Cells were harvested and the volume brought to 12 mLs with fresh medium. 1 mL of the cells was distributed into each well of a 12-well tissue culture plate. In 6 of the wells, 10 µL of 1 mM compound was added per well. 10 µL of DMSO was added to the remaining wells and mixed by pipetting up and down. Cells were incubated at 37°C and 5% CO2 for 4 hours. After incubation, cells were harvested from each well, lysed in 150 µL of RIPA buffer and analyzed as above.

The subject of assay [4] is K562 cells. Kind of assay: K562 proliferation assay (MTS). Format: cell-based, human. The settings on record: dose-response 3.125-100 μM, 48 hours, triplicate. The protocol: K562 cells were plated 3x10^4 cells/well in 96-well plates. Cells were treated with DMSO or test compound in dose-response (100, 50, 25, 12.5, 6.25, 3.125 μM) to a final DMSO concentration of 1%. After 48 hours of incubation at 37°C, cell proliferation was assessed by MTS assay (Promega CellTiter 96 AQueous One Solution) according to the manufacturer’s protocol. Absorbance at 490nm was read on a PerkinElmer Victor3 plate reader. Experiments were performed in triplicate.
K562 cells were treated with DMSO or test compound in dose-response. After 48 hours of incubation at 37°C, cell proliferation was assessed by MTS assay. Growth in the presence of test compound was normalized to DMSO-treated K562 cells and results are presented as % of growth relative to control. Experiments were performed in triplicate. (PDF) Click here for additional data file.

Assay [5] addresses T2, RIN1::ABL1 interaction (RIN1-SBP / ABL1-eGFP) (Homo sapiens, UniProt P00519+Q13671).
T2 construct: The ABL1 amino terminus was amplified from AblWT1-531 (gift of Dr. John Kuriyan); TEV site-ProtA-Flag (C, cleaved yes); made in house; host or cells: Sf9 insect cells (baculovirus, pFastBac1)
Kind of assay: TR-FRET assay of RIN1::ABL binding. The settings on record: for IC50: 21 hits selected for cell-based assay, concentration-response curves in triplicate. The method, then: To measure binding between purified RIN1 and ABL proteins we designed a quantitative TR-FRET based assay.
The assay readout was calculated as a ratio of donor and acceptor emissions, a measurement independent of donor and acceptor concentrations that allows for reliable comparison across assays. Assay components were mixed in kinase buffer and incubated for one hour at room temperature to allow for RIN1-Y^36 phosphorylation by ABL1 and subsequent formation of a stable divalent interaction between these proteins. Each multi-well assay plate included negative control samples (streptavidin-terbium, ABL-eGFP and ATP without RIN1-SBP). […]

Where [6] appears, read: S2 Table, TR-FRET assay, maximal inhibition, read-out: Max response (%).

SMILES strings stand for the structures. Read-outs that look alike come from different tables or passages of the source.

T2 sequence (P00519 1-531 isoform P00519-2): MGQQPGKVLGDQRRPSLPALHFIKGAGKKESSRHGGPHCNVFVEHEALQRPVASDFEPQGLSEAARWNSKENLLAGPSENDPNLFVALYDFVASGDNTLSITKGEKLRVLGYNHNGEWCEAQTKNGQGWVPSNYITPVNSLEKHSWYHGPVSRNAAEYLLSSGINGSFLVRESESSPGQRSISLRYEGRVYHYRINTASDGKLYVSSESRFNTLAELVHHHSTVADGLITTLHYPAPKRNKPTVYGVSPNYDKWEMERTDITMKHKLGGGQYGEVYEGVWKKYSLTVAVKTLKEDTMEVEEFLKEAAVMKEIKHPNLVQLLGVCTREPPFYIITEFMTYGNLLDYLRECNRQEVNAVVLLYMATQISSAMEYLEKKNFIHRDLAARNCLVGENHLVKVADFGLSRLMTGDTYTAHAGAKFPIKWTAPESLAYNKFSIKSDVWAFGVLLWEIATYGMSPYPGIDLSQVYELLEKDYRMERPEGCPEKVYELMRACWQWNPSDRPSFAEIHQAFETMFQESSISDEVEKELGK
T2 sequence (Q13671 whole entry): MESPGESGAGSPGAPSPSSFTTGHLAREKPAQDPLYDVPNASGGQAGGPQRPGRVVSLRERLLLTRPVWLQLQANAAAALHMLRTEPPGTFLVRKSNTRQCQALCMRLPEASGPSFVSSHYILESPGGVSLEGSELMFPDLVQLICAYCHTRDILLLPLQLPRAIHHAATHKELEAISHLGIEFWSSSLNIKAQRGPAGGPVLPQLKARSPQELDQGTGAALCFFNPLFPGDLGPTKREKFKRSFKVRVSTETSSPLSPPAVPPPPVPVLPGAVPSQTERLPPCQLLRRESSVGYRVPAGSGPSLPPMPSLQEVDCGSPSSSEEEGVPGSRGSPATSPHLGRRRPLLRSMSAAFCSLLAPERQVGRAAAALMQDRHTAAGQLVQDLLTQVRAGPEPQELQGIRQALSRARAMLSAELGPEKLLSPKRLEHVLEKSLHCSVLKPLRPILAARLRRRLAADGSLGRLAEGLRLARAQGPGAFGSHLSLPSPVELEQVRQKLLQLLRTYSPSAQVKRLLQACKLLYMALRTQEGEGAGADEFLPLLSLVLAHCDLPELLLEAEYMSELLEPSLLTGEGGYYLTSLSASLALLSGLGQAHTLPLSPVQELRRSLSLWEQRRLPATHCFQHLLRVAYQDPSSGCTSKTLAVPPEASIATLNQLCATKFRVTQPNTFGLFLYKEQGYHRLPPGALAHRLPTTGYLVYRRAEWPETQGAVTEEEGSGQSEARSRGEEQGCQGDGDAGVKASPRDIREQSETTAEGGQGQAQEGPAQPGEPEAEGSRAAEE
T1 sequence (P00519 1-531 isoform P00519-2): as the sequence (P00519 1-531 isoform P00519-2) above

Regarding `COc1ccc(CCNc2cc(=O)nc(N)[nH]2)cc1` [CID 1532134, 2-amino-6-[2-(4-methoxyphenyl)ethylamino]-1H-pyrimidin-4-one], the “ABL kinase activity: CRK and ABL phosphorylation” value in assay [1] was “no activity”.
On to `NC(=O)c1cccc(-c2cc(Nc3ccc(OC(F)(F)F)cc3)ncn2)c1` [GNF-2], for which the “activity against native ABL1” value in assay [2] is given as “no activity”.
`COc1cccc(CSc2nnc(CSc3nc4nc(C)cc(C)n4n3)s2)c1` [compound 1818178]: the “%inhibition of MAPK1/3 phosphorylation (pMAPK/MAPK ratio)” value (“%inhibition … (pMAPK/MAPK ratio)” below) in assay [3] turned out to be 25 ± 20%. Also, the “K562 proliferation (% growth relative to DMSO control)” value in assay [4] is recorded as “decrease K562 proliferation”. The IC50 (as a rule, the concentration that inhibits the measured activity by half) in assay [5] (S2 Table) was determined as 9.57 µM. In addition, in assay [5] (setting [6]), the Emax was found to be 95.7%.
Take `CN(C(=O)c1ccc(NC(=O)Cc2ccc(NC(=O)C3CCN(C(=O)c4ccccc4)CC3)cc2)cc1)C1CC1` [compound 44142745]: in assay [3], the “%inhibition … (pMAPK/MAPK ratio)” value is 52 ± 47%. Also, the “K562 proliferation (% growth relative to DMSO control)” value in assay [4] was “decrease K562 proliferation”. This compound also displayed an IC50 in assay [5] (S2 Table) of 2.53 µM. The Emax in assay [5] (setting [6]) worked out at 86.2%; in assay [5] (S4 Table, N-acyl piperidine-4-carboxamide series SAR, RIN1-ABL dose-response curve, read-out: Max Response (%)), 89.1%.
As to `CN(C(=O)c1ccc(NC(=O)Cc2ccc(NC(=O)C3CCN(C(=O)c4ccc(F)cc4)CC3)cc2)cc1)C1CC1` [compound 56844185], the “%inhibition … (pMAPK/MAPK ratio)” value in assay [3] is 57 ± 13%. For the same compound, the “K562 proliferation (% growth relative to DMSO control)” value in assay [4] is reported as “decrease K562 proliferation”. This compound showed an IC50 in assay [5] (S2 Table) of 1.06 µM. The Emax in assay [5] (setting [6]) turned out to be 85.2%.
Take `COc1ccc(C(=O)N2CCC(C(=O)Nc3ccc(CC(=O)Nc4ccc(C(=O)N(C)C5CC5)cc4)cc3)CC2)cc1` [compound 56844186]: the “%inhibition … (pMAPK/MAPK ratio)” value in assay [3] is 75 ± 33%. In addition, in assay [4], the “K562 proliferation (% growth relative to DMSO control)” value was “decrease K562 proliferation”. The IC50 in assay [5] (S2 Table) turned out to be 3.67 µM. Moreover, the Emax in assay [5] (setting [6]) came to 84.8%.
For the compound `CN(C(=O)c1ccc(NC(=O)Cc2ccc(NC(=O)C3CCN(C(=O)c4cccc(F)c4)CC3)cc2)cc1)C1CC1` [compound 56844188], the “%inhibition … (pMAPK/MAPK ratio)” value in assay [3] was determined as 75 ± 31%. Moreover, in assay [4], the “K562 proliferation (% growth relative to DMSO control)” value is given as “decrease K562 proliferation”. The same compound yielded an IC50 in assay [5] (S2 Table) of 1.35 µM. Besides, the Emax in assay [5] (setting [6]) was 86.8%.
On to `Cc1ccc(NC(=O)c2ccc(CN3CCN(C)CC3)cc2)cc1Nc1nccc(-c2cccnc2)n1` [imatinib, reference compound], for which the MAPK1/3 phosphorylation signal result in assay [3] (1 μM imatinib, 1 and 4 hours at 37°C) is given as “rapidly decreased”.
Take `O=C(O[C@@H]1Cc2c(O)cc(O)cc2O[C@@H]1c1cc(O)c(=O)c2c(O)c(O)cc([C@H]3Oc4cc(O)cc(O)c4C[C@H]3OC(=O)c3cc(O)c(O)c(O)c3)c2c1)c1cc(O)c(O)c(O)c1` [theaflavin-3,3’-digallate]: the “ABL kinase activity: CRK and ABL phosphorylation” value in assay [1] is recorded as “directly inhibits ABL trans-phosphorylation of CRK as well as ABL”. Further, in assay [5] (primary screen), the “Activity in the TR-FRET screening assay (FRET ratio)” value is given as “decrease the FRET ratio”.
